Measurements from US20070003987A1, “Screening method for substance binding to merozoite surface protein-1/42” (priority 2003, published 2007).

Assays:
P. vivax MSP133 = molecular target: T1, P. vivax MSP133 (Plasmodium vivax, UniProt Q02569, A1444G/T1362K/T1451N); test: isothermal titration calorimetry; format: binding
T1 sequence (Q02569 1325-1618 T1362K/A1444G/T1451N): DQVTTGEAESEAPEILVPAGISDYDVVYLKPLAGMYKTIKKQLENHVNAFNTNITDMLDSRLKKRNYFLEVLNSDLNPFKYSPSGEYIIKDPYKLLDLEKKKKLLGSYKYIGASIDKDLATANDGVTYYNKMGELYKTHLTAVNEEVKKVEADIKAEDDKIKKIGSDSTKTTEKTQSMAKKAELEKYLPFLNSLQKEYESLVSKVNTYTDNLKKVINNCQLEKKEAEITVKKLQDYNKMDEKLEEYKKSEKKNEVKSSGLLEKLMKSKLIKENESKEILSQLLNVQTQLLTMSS
Experimental: P. vivax MSP133 was expressed using the P. vivax MSP142 clone, above, as a template for PCR, followed by ligation of the product into vector pET30Xa/LIC. The sequence runs from Asp 1325 to Ser 1618 (Accession number A39401) following the N-terminal purification tag. The vector was used to transform BL21(DE3)pLysS cells. For expression, a culture of the transformed cells was induced at an OD600 of 0.6-0.8 at 37° C. with 1 mM IPTG for 3 h. The cells were harvested by centrifugation and the cell pellet lysed using the Bugbuster protein extraction reagent (Novagen). The cell lysate was cleared by centrifugation and the supernatant loaded directly onto a Ni-NTA column. The column was washed with 10 volumes of 50 mM NaH2PO4, 300 mM NaCl, 10 mM imidazole, pH 8.0, then with 6 column volumes of the same buffer containing 30 mM imidazole, and finally eluted with 3 column volumes of the buffer with 250 mM imidazole. The eluted protein was then loaded directly onto a Superdex 200 (26/600) column (Amersham) equilibrated in 20 mM Tris-HCl, 250 mM NaCl, pH 8.0 and purified by gel filtration. The fractions containing MSP-133 were pooled and dialysed extensively with PBS.
In addition to the fluorimetry, isothermal titration calorimetry (ITC) was performed using a Microcal omega VP-ITC (MicroCal Inc., Northampton, Mass.). The proteins were dialyzed extensively against the ITC buffer (phosphate buffered saline, pH 7.4). All experiments were performed at 25° C. The cell, 1.425 ml, contained 30 μM MSP142 or MSP133 and these were titrated by injection of a total of 290 μl of 600 μM suramin. The heat of dilution of suramin into buffer was determined in control experiments. The data were fitted by least-squares methods using the evaluation software, Microcal Origin version 5.0 provided by the manufacturer. Each experiment was performed twice.

[1] = molecular target: T2, MSP119 from P. falciparum (Plasmodium falciparum, UniProt P04933, S1528A); test: binding of suramin by fluorimetry
T2 construct: contained the 96 amino acid MSP119 fragment, preceded by a single His residue; N-terminal leader […]; (His6 + Factor Xa site); made in house; host or cells: Pichia pastoris (vector pPIC9K)
From the text: Plasmodium falciparum MSP119 (Swiss-Prot 04933) was expressed from a synthetic gene optimised for Pichia pastoris expression (European Patent No. EP1180120). This construct, inserted at the SnaBI site of vector pPIC9K (Invitrogen), contained the N-terminal leader sequence YHHHHHHIEGRH preceding the MSP119 sequence. A point mutation (Ser3 to Ala) was also introduced to eliminate N-glycosylation at Asn1. Following purification of MSP119 as described previously (Morgan et al, 1999 J. Mol. Biol. 289, 113-122), the N-terminal tag was cleaved with Factor Xa (New England Biolabs) and MSP119 was purified by gel filtration (Superdex 200). The fmal product contained the 96 amino acid MSP119 fragment, preceded by a single His residue.
The intrinsic fluorescence of suramin was used to determine its capacity to bind to the various MSP1-derived proteins. The fluorescence was measured using a Perkin Elmer LS-3B or a Spex Fluoro Max 2 fluorimeter. Suramin was excited at a wavelength of 315 or 330 nm with 2.5 nm resolution, the emission spectra were measured at wavelengths ranging from 350-450 nm. Suramin and the MSP1 proteins were diluted in 20 mM NaH2PO4, 150 mM NaCl at pH 7.2 and analysed at 10 or 20° C. Titrations were performed by adding aliquots of the suramin solution to the MSP1 solution. […] The Kd for the suramin-MSP1 binding was determined from three independent experiments.

Cc1ccc(C(=O)Nc2ccc(S(=O)(=O)O)c3cc(S(=O)(=O)O)cc(S(=O)(=O)O)c23)cc1NC(=O)c1cccc(NC(=O)Nc2cccc(C(=O)Nc3cc(C(=O)Nc4ccc(S(=O)(=O)O)c5cc(S(=O)(=O)O)cc(S(=O)(=O)O)c45)ccc3C)c2)c1 [suramin]
Kd (P. vivax MSP133): 1.5 ± 0.5 µM | binding to MSP133 weaker than to MSP142 (P. vivax MSP133; ITC): 5 fold | AH value (P. vivax MSP133; ITC, 25° C.): 50.2 ± 4.2 kJ/mol | enhancement of suramin fluorescence on addition to MSP119 [1]: No fluorescence enhancement
